Values belong to the compound of their own block, whether it stands above or below them.
Test system: NCI-H929 complex spheroids, viability % test/control
Assay: Anticancer human tumor NCI-H929 cell line growth inhibition [RAS];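 further: compound exposure lasted seven days before viability was read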
Details: for IC50: curve of first compound; for viability, T/C: stronger effect = lower value
From the text: RAS pathway inhibitors in Combinations in Complex Spheroids
A high-throughput screen of multi-cell type tumor spheroids was designed to identify active combinations of RAS pathway inhibitors and targeted small molecules. Complex spheroids include a stromal component modeled by human endothelial cells (HUVEC) and fibroblasts modeled by human mesenchymal stem cells (MSCs). The concentration ranges selected for each drug and investigational agent were based upon clinically achievable concentrations if the clinical Cmax of the agent was known.
Compounds. The drugs and investigational agents: abemaciclib (NSC768073), cobimetinib (NSC768068), divarasib (GDC6063, NSC841802), docetaxel (NSC628503), GDC-1971 (RLY-1971, NSC841576), gemcitabine (NSC613327), inavolisib (NSC800729), ipatasertib (NSC767898), KB-0742 (NSC834161), MRTX-1133 (NSC836407), osimertinib (NSC779217), RMC-4630 (NSC839698), RMC-6236 (NSC851965), RMC-6291 (NSC852671), Ro-3306 (NSC812927), sapanisertib (NSC764658), SN-38 (NSC673596), staurosporine (NSC755774), SY5609 (NSC837396), and tovorafenib (DAY101, NSC766906), were obtained from the National Cancer Institute (NCI) Developmental Therapeutics Program Chemical Repository. The FDA-approved anticancer drug set is available from the NCI Developmental Therapeutics Program. […] The stock solutions were prepared in dimethyl sulfoxide (DMSO, Sigma-Aldrich, St. Louis, MO, cat. D2650) at 800-fold the tested concentration and stored at -70 degrees C prior to their use. All drugs and investigational agents were tested over a range starting from a high concentration at or near the clinical Cmax and decreasing in half-log increments. If the clinical Cmax for an agent had not been determined, the highest concentration tested was 10 microM.
Cell Culture. All cells were maintained in an incubator at 37 degrees C and 5% CO2 with 95% humidity. The PDC lines were cultured according to standard operating procedures established by the NCI PDMR. All PDCs were thawed and cultured in Matrigel-coated flasks prepared with a working solution of 1X Ham's F-12 nutrient mix, without supplementation (Invitrogen, Waltham, MA, cat. 11765054), 100 U/mL penicillin-streptomycin (Invitrogen, cat. 15140122), and 2.5% Matrigel (Corning Inc., Corning, NY, cat. 354248) for the first three passages. The 362531-283-R-J2-PDC and 782815-120-R-J1-PDC lines were cultured in 6C/Colon 1B media, which includes advanced DMEM/F-12 (Thermo Fisher Scientific, cat. 12634028), 10 mM HEPES (Thermo Fisher Scientific, cat. 15630080), 1X GlutaMAX supplement (Thermo Fisher Scientific, cat. 35050061), 0.1 mg/mL primocin (InvivoGen, San Diego, CA, cat. ant-pm-2), 10% defined fetal bovine serum, heat inactivated (HyClone Laboratories Inc., Logan, UT, cat. SH30070.03HI), 50% L-WRN conditioned media (ATCC, cat. CRL-3276), 1.25 mM N-Acetyl-L-cysteine (Sigma-Aldrich, cat. A9165), 10 mM nicotinamide (Sigma-Aldrich, cat. N0636), 1X B-27 supplement (Thermo Fisher Scientific, cat. 17504044), 1X N-2 supplement (Thermo Fisher Scientific, cat. 17502048), 50 ng/mL human EGF (Thermo Fisher Scientific, cat. PHG0311), and 10 microM Y-27632 dihydrochloride (Tocris Bioscience, cat. 1254). The K12877-001-R-J1-PDC line was cultured in 6I media, which includes all 6C/Colon 1B media plus 10 ng/mL human FGF-10 (PeproTech, cat. 100-26), 1 ng/mL human FGF-2 (PeproTech, cat. 100-18B), 1 µM prostaglandin E2 (Tocris Bioscience, cat. 2296), […] hydrocortisone (Sigma-Aldrich, cat. H4001), and […] bovine insulin (Sigma-Aldrich, cat. I6634). The K86415-001-R-J1-PDC line was cultured in 6D media, which includes all 6C/Colon 1B media components minus the L-WRN conditioned media. The 485176-168-R4-J1-PDC was cultured in PANC media, which includes all 6C/Colon 1B media plus 100 ng/mL human FGF-10 (PeproTech, cat. 100-26), 500 nM SB-431542 (Selleckchem, cat. S1067), and 10 nM gastrin (Tocris Bioscience, cat. 3006). […]

IC50 (second compound 0.00316 µM): > 10000 nM
IC50 (second compound 0.01 µM): > 10000 nM
IC50 (second compound 0.0316 µM): > 10000 nM
IC50 (second compound 0.1 µM): > 10000 nM
IC50 (second compound 0.316 µM): > 10000 nM
IC50 (second compound 1 µM): 8110 nM
Structure (SMILES): CC(Nc1ccc2c(c1)OCCn1cc(N3C(=O)OCC3C(F)F)nc1-2)C(N)=O (stereo not drawn) + C=CC(=O)N1CCN(c2nc(OCC3CCCN3C)nc3c(F)c(-c4nc(N)cc(C)c4C(F)(F)F)c(Cl)cc23)C(C)C1
viability, T/C (second compound 0.00316 µM, first compound 0.0316 µM): 99%
viability, T/C (second compound 0.00316 µM, first compound 0.1 µM): 103%
viability, T/C (second compound 0.00316 µM, first compound 0.316 µM): 112%
viability, T/C (second compound 0.00316 µM, first compound 1 µM): 107%
viability, T/C (second compound 0.00316 µM, first compound 3.16 µM): 110%
viability, T/C (second compound 0.00316 µM, first compound 10 µM): 61.1%
viability, T/C (second compound 0.01 µM, first compound 0.0316 µM): 94.8%
viability, T/C (second compound 0.01 µM, first compound 0.1 µM): 103%
viability, T/C (second compound 0.01 µM, first compound 0.316 µM): 107%
viability, T/C (second compound 0.01 µM, first compound 1 µM): 112%
viability, T/C (second compound 0.01 µM, first compound 3.16 µM): 102%
viability, T/C (second compound 0.01 µM, first compound 10 µM): 64.3%
viability, T/C (second compound 0.0316 µM, first compound 0.0316 µM): 98%
viability, T/C (second compound 0.0316 µM, first compound 0.1 µM): 106%
viability, T/C (second compound 0.0316 µM, first compound 0.316 µM): 111%
viability, T/C (second compound 0.0316 µM, first compound 1 µM): 114%
viability, T/C (second compound 0.0316 µM, first compound 3.16 µM): 112%
viability, T/C (second compound 0.0316 µM, first compound 10 µM): 64.6%
viability, T/C (second compound 0.1 µM, first compound 0.0316 µM): 97.8%
viability, T/C (second compound 0.1 µM, first compound 0.1 µM): 104%
viability, T/C (second compound 0.1 µM, first compound 0.316 µM): 113%
viability, T/C (second compound 0.1 µM, first compound 1 µM): 113%
viability, T/C (second compound 0.1 µM, first compound 3.16 µM): 113%
viability, T/C (second compound 0.1 µM, first compound 10 µM): 66.1%
viability, T/C (second compound 0.316 µM, first compound 0.0316 µM): 102%
viability, T/C (second compound 0.316 µM, first compound 0.1 µM): 107%
viability, T/C (second compound 0.316 µM, first compound 0.316 µM): 112%
viability, T/C (second compound 0.316 µM, first compound 1 µM): 112%
viability, T/C (second compound 0.316 µM, first compound 3.16 µM): 112%
viability, T/C (second compound 0.316 µM, first compound 10 µM): 77.5%
viability, T/C (second compound 1 µM, first compound 0.0316 µM): 103%
viability, T/C (second compound 1 µM, first compound 0.1 µM): 110%
viability, T/C (second compound 1 µM, first compound 0.316 µM): 114%
viability, T/C (second compound 1 µM, first compound 1 µM): 115%
viability, T/C (second compound 1 µM, first compound 3.16 µM): 110%
viability, T/C (second compound 1 µM, first compound 10 µM): 36.7%

IC50 (second compound 0.0316 µM): 1.88 nM
IC50 (second compound 0.1 µM): 1.97 nM
IC50 (second compound 0.316 µM): 1.83 nM
IC50 (second compound 1 µM): 1.85 nM
IC50 (second compound 3.16 µM): 1.83 nM
IC50 (second compound 10 µM): 1.7 nM
Structure (SMILES): CCc1c2c(nc3ccc(O)cc13)-c1cc3c(c(=O)n1C2)COC(=O)[C@]3(O)CC + C#Cc1c(F)ccc2cc(O)cc(-c3ncc4c(N5CC6CCC(C5)N6)nc(OCC56CCCN5CC(F)C6)nc4c3F)c12
viability, T/C (second compound 0.0316 µM, first compound 0.000949 µM): 107%
viability, T/C (second compound 0.0316 µM, first compound 0.003 µM): 11.1%
viability, T/C (second compound 0.0316 µM, first compound 0.00949 µM): 1.08%
viability, T/C (second compound 0.0316 µM, first compound 0.03 µM): 1.06%
viability, T/C (second compound 0.0316 µM, first compound 0.0949 µM): 2.09%
viability, T/C (second compound 0.0316 µM, first compound 0.3 µM): 1.3%
viability, T/C (second compound 0.1 µM, first compound 0.000949 µM): 103%
viability, T/C (second compound 0.1 µM, first compound 0.003 µM): 19%
viability, T/C (second compound 0.1 µM, first compound 0.00949 µM): 1.39%
viability, T/C (second compound 0.1 µM, first compound 0.03 µM): 3.06%
viability, T/C (second compound 0.1 µM, first compound 0.0949 µM): 2.48%
viability, T/C (second compound 0.1 µM, first compound 0.3 µM): 0.71%
viability, T/C (second compound 0.316 µM, first compound 0.000949 µM): 103%
viability, T/C (second compound 0.316 µM, first compound 0.003 µM): 10.5%
viability, T/C (second compound 0.316 µM, first compound 0.00949 µM): 1.36%
viability, T/C (second compound 0.316 µM, first compound 0.03 µM): 2.4%
viability, T/C (second compound 0.316 µM, first compound 0.0949 µM): 1.35%
viability, T/C (second compound 0.316 µM, first compound 0.3 µM): 1.02%
viability, T/C (second compound 1 µM, first compound 0.000949 µM): 104%
viability, T/C (second compound 1 µM, first compound 0.003 µM): 11.1%
viability, T/C (second compound 1 µM, first compound 0.00949 µM): 1.18%
viability, T/C (second compound 1 µM, first compound 0.03 µM): 1.37%
viability, T/C (second compound 1 µM, first compound 0.0949 µM): 0.94%
viability, T/C (second compound 1 µM, first compound 0.3 µM): 0.76%
viability, T/C (second compound 3.16 µM, first compound 0.000949 µM): 104%
viability, T/C (second compound 3.16 µM, first compound 0.003 µM): 9.19%
viability, T/C (second compound 3.16 µM, first compound 0.00949 µM): 2.65%
viability, T/C (second compound 3.16 µM, first compound 0.03 µM): 1.69%
viability, T/C (second compound 3.16 µM, first compound 0.0949 µM): 1.26%
viability, T/C (second compound 3.16 µM, first compound 0.3 µM): 0.49%
viability, T/C (second compound 10 µM, first compound 0.000949 µM): 92%
viability, T/C (second compound 10 µM, first compound 0.003 µM): 9.27%
viability, T/C (second compound 10 µM, first compound 0.00949 µM): 1.7%
viability, T/C (second compound 10 µM, first compound 0.03 µM): 1.05%
viability, T/C (second compound 10 µM, first compound 0.0949 µM): 1.19%
viability, T/C (second compound 10 µM, first compound 0.3 µM): 0.41%

Structure (SMILES): CC1(C)CCC(Nc2ncc(C(F)(F)F)c(-c3c[nH]c4c(P(C)(C)=O)c(C#N)ccc34)n2)CN1 (stereo not drawn)
viability, T/C (compound 0.00949 µM): 14.5% [middle of 4 runs]
viability, T/C (compound 0.03 µM): 8.74% [middle of 4 runs]
viability, T/C (compound 0.0949 µM): 9.57% [middle of 4 runs]
viability, T/C (compound 0.3 µM): 5.41% [middle of 4 runs]

Reference: PubChem BioAssay AID2060884 (Molecular Pharmacology Branch, DTP, NCI, 2025)
